Source: ChEMBL document CHEMBL1141481, “Probing the structural and topological requirements for CCR2 antagonism: holographic QSAR for indolopiperidine derivatives” (Bioorg Med Chem Lett, 2008)
pKi: −log10 of the molar value. Where “and” joins values, the source holds several entries; their conditions need not be identical. Equal entries are not always repeated.

molecular target: C-C chemokine receptor type 2 (Homo sapiens, UniProt P41597); experiment: Antagonist activity at human CCR2 receptor
Sequence (P41597 whole entry): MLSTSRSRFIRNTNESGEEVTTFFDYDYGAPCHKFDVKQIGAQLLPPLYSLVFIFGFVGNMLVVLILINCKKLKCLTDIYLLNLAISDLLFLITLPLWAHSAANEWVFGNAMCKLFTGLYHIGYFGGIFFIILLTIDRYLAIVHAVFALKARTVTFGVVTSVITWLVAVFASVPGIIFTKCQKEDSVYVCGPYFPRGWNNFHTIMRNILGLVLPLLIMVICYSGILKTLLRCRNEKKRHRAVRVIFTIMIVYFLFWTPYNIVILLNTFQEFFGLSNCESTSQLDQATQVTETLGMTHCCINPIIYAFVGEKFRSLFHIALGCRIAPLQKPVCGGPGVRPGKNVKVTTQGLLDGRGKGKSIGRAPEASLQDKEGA

Row | pKi | Structure (SMILES)
1 | 5.83 | O=C(/C=C/c1ccc(-c2ccccc2)cc1)NCCCCCN1CCC(c2c[nH]c3ccccc23)CC1
2 | 6.45 | O=C(/C=C/c1ccc(Br)cc1)NCCCCCN1CCC(c2c[nH]c3ccccc23)CC1
3 | 5.14 | O=C(NCCCCCN1CCC(c2c[nH]c3ccccc23)CC1)c1ccc(Br)cc1
4 | 4.89 | CC(=O)Nc1ccc(/C=C/C(=O)NCCCCCN2CCC(c3c[nH]c4ccccc34)CC2)cc1
5 | 5.35 | O=C(/C=C/c1ccccc1Cl)NCCCCCN1CCC(c2c[nH]c3ccccc23)CC1
6 | 6.33 | O=C(/C=C/c1ccc(I)cc1)NCCCCCN1CCC(c2c[nH]c3ccccc23)CC1
7 | 5.35 | O=C(Cc1ccc(Cl)c(Cl)c1)NCCCCCN1CCC(c2c[nH]c3ccccc23)CC1
8 | 6.25 | Cc1ccc(/C=C/C(=O)NCCCCCN2CCC(c3c[nH]c4ccccc34)CC2)cc1
9 | 5.77 | CCCCc1ccc(/C=C/C(=O)NCCCCCN2CCC(c3c[nH]c4ccccc34)CC2)cc1
10 | 5.79 | O=C(NCCCCCN1CCC(c2c[nH]c3ccccc23)CC1)Nc1ccc(Cl)c(Cl)c1
11 | 6.37 | O=C(/C=C/c1ccc(Cl)c(Cl)c1)NCCCCCN1CCC(c2c[nH]c3ccccc23)CC1
12 | 5.26 | O=C(NCCCCCN1CCC(c2c[nH]c3ccccc23)CC1)c1ccc(-c2ccccc2)cc1

Row | Structure (SMILES) | pKi
13 | O=C(/C=C/c1ccc(Cl)c(Cl)c1)N[C@H]1CC[C@H](CN2CCC(c3c[nH]c4ccccc34)CC2)CC1 | 6.20 and 6.19
